The structures appear in SMILES notation.

For one test, the system named is BT-549. The test can be described thus: NCI-60 single-dose screen. The test is classed as cell-based. Conditions: Homo sapiens, single dose 10 µM, '-' = no inhibition, read-out: % Growth Inhibition. The essentials: (§1)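 NCI Developmental Therapeutics Program screen across 60 human cancer cell lines from nine tumor types; compounds tested at a single dose of 10 μM.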
Regarding `COc1ccc(-c2cc(-c3cccc(OC)c3)nc(SC(C)C)n2)cc1` [Compound 19, 2-(Isopropylthio)-6-(3-methoxyphenyl)-4-(4-methoxyphenyl)pyrimidine], the inhibition at 10 µM worked out at 6.85%.

The test system of a further test is COLO 205. Kind of test: NCI-60 single-dose screen. The test is classed as cell-based. The settings on record: Homo sapiens, single dose 10 µM, '-' = no inhibition, read-out: % Growth Inhibition. The method, boiled down:
as §1
In the case of `COc1ccc(-c2cc(-c3cccc(OC)c3)nc(SC(C)C)n2)cc1` [Compound 19, 2-(Isopropylthio)-6-(3-methoxyphenyl)-4-(4-methoxyphenyl)pyrimidine], the inhibition at 10 µM amounted to 0.02%.

The next test deals with U251. The test can be described thus: NCI-60 single-dose screen. The test is classed as cell-based. The settings on record: Homo sapiens, U-251, single dose 10 µM, '-' = no inhibition, read-out: % Growth Inhibition. The essentials:
as §1
For the compound `COc1ccc(-c2cc(-c3cccc(OC)c3)nc(SC(C)C)n2)cc1` [Compound 19, 2-(Isopropylthio)-6-(3-methoxyphenyl)-4-(4-methoxyphenyl)pyrimidine], the inhibition at 10 µM amounted to 10.2%.

The test system of the next test is HOP-62. Kind of test: NCI-60 single-dose screen. The test is classed as cell-based. Conditions: Homo sapiens, single dose 10 µM, '-' = no inhibition, read-out: % Growth Inhibition. The essentials: as §1
As to `COc1ccc(-c2cc(-c3cccc(OC)c3)nc(SC(C)C)n2)cc1` [Compound 19, 2-(Isopropylthio)-6-(3-methoxyphenyl)-4-(4-methoxyphenyl)pyrimidine], the inhibition at 10 µM was under 0%.

A further test deals with OVCAR-4. The test can be described thus: NCI-60 single-dose screen. The test is classed as cell-based. Conditions: Homo sapiens, single dose 10 µM, '-' = no inhibition, read-out: % Growth Inhibition. The method, boiled down: as §1
`COc1ccc(-c2cc(-c3cccc(OC)c3)nc(SC(C)C)n2)cc1` [Compound 19, 2-(Isopropylthio)-6-(3-methoxyphenyl)-4-(4-methoxyphenyl)pyrimidine]: the inhibition at 10 µM amounted to 4.28%.

The test system of the next test is A498. The test can be described thus: NCI-60 single-dose screen. The test is classed as cell-based. Conditions: Homo sapiens, single dose 10 µM, '-' = no inhibition, read-out: % Growth Inhibition. The essentials:
as §1
For the compound `COc1ccc(-c2cc(-c3cccc(OC)c3)nc(SC(C)C)n2)cc1` [Compound 19, 2-(Isopropylthio)-6-(3-methoxyphenyl)-4-(4-methoxyphenyl)pyrimidine], the inhibition at 10 µM is under 0%.

The subject of another test is NCI-H522. Kind of test: NCI-60 single-dose screen. The settings on record: Homo sapiens, single dose 10 µM, '-' = no inhibition, read-out: % Growth Inhibition. The test is classed as cell-based. The essentials:
as §1
As to `COc1ccc(-c2cc(-c3cccc(OC)c3)nc(SC(C)C)n2)cc1` [Compound 19, 2-(Isopropylthio)-6-(3-methoxyphenyl)-4-(4-methoxyphenyl)pyrimidine], the inhibition at 10 µM was determined as 21%.

The next test has as its system HCC-2998. The test can be described thus: NCI-60 single-dose screen. The test is classed as cell-based. Conditions: Homo sapiens, single dose 10 µM, '-' = no inhibition, read-out: % Growth Inhibition. The method, boiled down:
as §1
Consider `COc1ccc(-c2cc(-c3cccc(OC)c3)nc(SC(C)C)n2)cc1` [Compound 19, 2-(Isopropylthio)-6-(3-methoxyphenyl)-4-(4-methoxyphenyl)pyrimidine], for which the inhibition at 10 µM is under 0%.

The test system of a further test is T-47D. The test can be described thus: NCI-60 single-dose screen. The test is classed as cell-based. The settings on record: Homo sapiens, T47D, single dose 10 µM, '-' = no inhibition, read-out: % Growth Inhibition. The method, boiled down: as §1
For `COc1ccc(-c2cc(-c3cccc(OC)c3)nc(SC(C)C)n2)cc1` [Compound 19, 2-(Isopropylthio)-6-(3-methoxyphenyl)-4-(4-methoxyphenyl)pyrimidine], the inhibition at 10 µM stood at 24.6%.

A further test concerns MCF7. The test can be described thus: NCI-60 single-dose screen. The test is classed as cell-based. The settings on record: Homo sapiens, single dose 10 µM, '-' = no inhibition, read-out: % Growth Inhibition. The essentials:
as §1
In the case of `COc1ccc(-c2cc(-c3cccc(OC)c3)nc(SC(C)C)n2)cc1` [Compound 19, 2-(Isopropylthio)-6-(3-methoxyphenyl)-4-(4-methoxyphenyl)pyrimidine], the inhibition at 10 µM came out at 11.6%.

The subject of a further test is SK-OV-3. The test can be described thus: NCI-60 single-dose screen. The test is classed as cell-based. The settings on record: Homo sapiens, single dose 10 µM, '-' = no inhibition, read-out: % Growth Inhibition. The essentials: as §1
With `COc1ccc(-c2cc(-c3cccc(OC)c3)nc(SC(C)C)n2)cc1` [Compound 19, 2-(Isopropylthio)-6-(3-methoxyphenyl)-4-(4-methoxyphenyl)pyrimidine], the inhibition at 10 µM was under 0%.

The next test concerns RXF 393. Kind of test: NCI-60 single-dose screen. The test is classed as cell-based. The settings on record: Homo sapiens, single dose 10 µM, '-' = no inhibition, read-out: % Growth Inhibition. The essentials: as §1
Take `COc1ccc(-c2cc(-c3cccc(OC)c3)nc(SC(C)C)n2)cc1` [Compound 19, 2-(Isopropylthio)-6-(3-methoxyphenyl)-4-(4-methoxyphenyl)pyrimidine]: the inhibition at 10 µM worked out at 18.9%.

For a further test, the system named is HT29. The test can be described thus: NCI-60 single-dose screen. The test is classed as cell-based. The settings on record: Homo sapiens, HT-29, single dose 10 µM, '-' = no inhibition, read-out: % Growth Inhibition. The essentials:
as §1
In the case of `COc1ccc(-c2cc(-c3cccc(OC)c3)nc(SC(C)C)n2)cc1` [Compound 19, 2-(Isopropylthio)-6-(3-methoxyphenyl)-4-(4-methoxyphenyl)pyrimidine], the inhibition at 10 µM came out at 32.5%.

The test system of the next test is SK-MEL-2. Kind of test: NCI-60 single-dose screen. The test is classed as cell-based. The settings on record: Homo sapiens, single dose 10 µM, '-' = no inhibition, read-out: % Growth Inhibition. The method, boiled down: as §1
With `COc1ccc(-c2cc(-c3cccc(OC)c3)nc(SC(C)C)n2)cc1` [Compound 19, 2-(Isopropylthio)-6-(3-methoxyphenyl)-4-(4-methoxyphenyl)pyrimidine], the inhibition at 10 µM was determined as 7.18%.

In another test the test system is TK-10. The test can be described thus: NCI-60 single-dose screen. The test is classed as cell-based. The settings on record: Homo sapiens, single dose 10 µM, '-' = no inhibition, read-out: % Growth Inhibition. The essentials:
as §1
On to `COc1ccc(-c2cc(-c3cccc(OC)c3)nc(SC(C)C)n2)cc1` [Compound 19, 2-(Isopropylthio)-6-(3-methoxyphenyl)-4-(4-methoxyphenyl)pyrimidine], for which the inhibition at 10 µM was under 0%.

The subject of another test is HCT-15. The test can be described thus: NCI-60 single-dose screen. The test is classed as cell-based. The settings on record: Homo sapiens, single dose 10 µM, '-' = no inhibition, read-out: % Growth Inhibition. The method, boiled down:
as §1
Consider `COc1ccc(-c2cc(-c3cccc(OC)c3)nc(SC(C)C)n2)cc1` [Compound 19, 2-(Isopropylthio)-6-(3-methoxyphenyl)-4-(4-methoxyphenyl)pyrimidine], for which the inhibition at 10 µM stood at 24.5%.

A further test concerns UACC-62. The test can be described thus: NCI-60 single-dose screen. The test is classed as cell-based. Conditions: Homo sapiens, single dose 10 µM, '-' = no inhibition, read-out: % Growth Inhibition. The method, boiled down:
as §1
Consider `COc1ccc(-c2cc(-c3cccc(OC)c3)nc(SC(C)C)n2)cc1` [Compound 19, 2-(Isopropylthio)-6-(3-methoxyphenyl)-4-(4-methoxyphenyl)pyrimidine], for which the inhibition at 10 µM came out at 25.5%.

In another test the test system is UO-31. The test can be described thus: NCI-60 single-dose screen. Conditions: Homo sapiens, single dose 10 µM, '-' = no inhibition, read-out: % Growth Inhibition. The test is classed as cell-based. The essentials:
as §1
In the case of `COc1ccc(-c2cc(-c3cccc(OC)c3)nc(SC(C)C)n2)cc1` [Compound 19, 2-(Isopropylthio)-6-(3-methoxyphenyl)-4-(4-methoxyphenyl)pyrimidine], the inhibition at 10 µM was determined as 23.6%.

In the next test the test system is NCI-H322M. Kind of test: NCI-60 single-dose screen. The test is classed as cell-based. Conditions: Homo sapiens, single dose 10 µM, '-' = no inhibition, read-out: % Growth Inhibition. The method, boiled down:
as §1
As to `COc1ccc(-c2cc(-c3cccc(OC)c3)nc(SC(C)C)n2)cc1` [Compound 19, 2-(Isopropylthio)-6-(3-methoxyphenyl)-4-(4-methoxyphenyl)pyrimidine], the inhibition at 10 µM was 4.92%.

The subject of a further test is UACC-257. Kind of test: NCI-60 single-dose screen. The test is classed as cell-based. Conditions: Homo sapiens, single dose 10 µM, '-' = no inhibition, read-out: % Growth Inhibition. The essentials:
as §1
Regarding `COc1ccc(-c2cc(-c3cccc(OC)c3)nc(SC(C)C)n2)cc1` [Compound 19, 2-(Isopropylthio)-6-(3-methoxyphenyl)-4-(4-methoxyphenyl)pyrimidine], the inhibition at 10 µM is under 0%.

Another test concerns RPMI-8226. Kind of test: NCI-60 single-dose screen. The test is classed as cell-based. Conditions: Homo sapiens, single dose 10 µM, '-' = no inhibition, read-out: % Growth Inhibition. The essentials:
as §1
`COc1ccc(-c2cc(-c3cccc(OC)c3)nc(SC(C)C)n2)cc1` [Compound 19, 2-(Isopropylthio)-6-(3-methoxyphenyl)-4-(4-methoxyphenyl)pyrimidine]: the inhibition at 10 µM is 10.1%.

In a further test the test system is SR. The test can be described thus: NCI-60 single-dose screen. The test is classed as cell-based. Conditions: Homo sapiens, single dose 10 µM, '-' = no inhibition, read-out: % Growth Inhibition. The essentials:
as §1
As for `COc1ccc(-c2cc(-c3cccc(OC)c3)nc(SC(C)C)n2)cc1` [Compound 19, 2-(Isopropylthio)-6-(3-methoxyphenyl)-4-(4-methoxyphenyl)pyrimidine], the inhibition at 10 µM stood at 27.6%.

Another test has as its system MDA-MB-468. The test can be described thus: NCI-60 single-dose screen. The settings on record: Homo sapiens, single dose 10 µM, '-' = no inhibition, read-out: % Growth Inhibition. The test is classed as cell-based. The essentials:
as §1
On to `COc1ccc(-c2cc(-c3cccc(OC)c3)nc(SC(C)C)n2)cc1` [Compound 19, 2-(Isopropylthio)-6-(3-methoxyphenyl)-4-(4-methoxyphenyl)pyrimidine], for which the inhibition at 10 µM was 20.2%.
